{"source": "patent US20160067221A1", "about": "“USE OF ERGOTHIONEINE FOR INDUCING ACTIVITY OF NRF2 IN CELL” (China Medical University, priority 2014, published 2016)", "system": "Nrf2", "assay": "Ergothioneine-induced Nrf2 nuclear translocation after kinase inhibitor pretreatment (Western blot)", "format": "cell-based, human", "conditions": "inhibitor 2.5 μM 30 minutes, then 500 nM ergothioneine 1 hour", "description": "Given that the ergothioneine can activate the Nrf2 to induce the expression of the downstream antioxidant genes; this example further investigates the pathway of the Nrf2 activated by the ergothioneine.\nThe HaCaT cells are incubated with respective pharmacological inhibitors of p38 (SB203580; 20 μM), ERK (PD98059; 20 μM), JNK (SP600125; 20 μM), PI3K (LY294002; 20 μM), PKC (GF109203X; 2.5 μM), or ROS (NAC; 1 mM) for 30 minutes, and then incubated with 500 nM ergothioneine for 1 hour. After the incubation, nuclear extracts and cytosolic extracts are collected to observe the expression of the Nrf2 nuclear translocation. FIG. 12 illustrates that the ergothioneine induces a Nrf2-mediated antioxidant signaling pathway. The data result is represented by mean±SD values; n=3, wherein * represents ρ<0.05 compared to the control group.", "data": [{"smiles": "CN(C)CCCn1cc(C2=C(c3c[nH]c4ccccc34)C(=O)NC2=O)c2ccccc21", "note": "[GF109203X]", "values": [{"measurement": "expression of the Nrf2 nuclear translocation", "result": "significantly inhibited"}]}]}
